Experimental data from US9617256B2 (priority 2007, dated 2017).
In brackets after ≈: the same amount, converted by molar mass. Like-named read-outs stand apart in the source and are kept apart here.

Key:
[1] = test system: AABA1060 (clinical isolate of Acinetobacter baumannii); experiment: MIC broth microdilution, AABA1060; format: cell-based; conditions: for MIC: Acinetobacter baumannii, read-out: MIC AABA1060
Experimental: (§1) Bacterial isolates were cultivated from −70° C. frozen stocks by overnight passages at 35° C. in ambient air on Mueller-Hinton agar (Beckton Dickinson, Franklin Lakes, N.J.). Clinical isolates tested were obtained from various geographically diverse hospitals in the US and abroad (Focus Diagnostics, Herndon, Va. and JMI, North Liberty, Iowa). Quality control strains were from the American Type Culture Collection (ATCC; Rockville, Md.). Additional primary panel strains were generated using standard molecular biology techniques.
(§2) Minimum Inhibitory Concentrations (MICs) were determined by the broth microdilution method in accordance with the Clinical and Laboratory Standards Institute (CLSI) guidelines. In brief, organism suspensions were adjusted to a 0.5 McFarland standard to yield a final inoculum between 3×10^5 and 7×10^5 colony-forming units (CFU)/mL. Drug dilutions and inocula were made in sterile, cation adjusted Mueller-Hinton Broth (Beckton Dickinson). An inoculum volume of 100 μL was added to wells containing 100 μL of broth with 2-fold serial dilutions of drug. All inoculated microdilution trays were incubated in ambient air at 35° C. for 18-24 hours. […] Performance of the assay was monitored by the use of laboratory quality-control strains and levofloxacin, a compound with a defined MIC spectrum, in accordance with CLSI guidelines.
(§3) *AECO001 is ATCC25922, AECO063 is ATCC25922 bearing an acrAB mutation, APAE001 is ATCC27853, APAE006 is a strain of P. aeruginosa in which all efflux pumps are inactivated, APAE006+PMBN indicates MICs with the indicated strain in the presence of 8 micrograms per milliliter of polymyxin B nonapeptide, AABA1060 is a clinical isolate of Acinetobacter baumannii, ASAU001 is a laboratory strain of S. aureus (ATCC29213).

[2] = test system: APAE006 in the presence of 8 micrograms per milliliter of polymyxin B nonapeptide; format: cell-based, P. aeruginosa; conditions: APAE006 with 8 micrograms per milliliter polymyxin B nonapeptide
Experimental: as §1, §2, §3

[3] = test system: AECO001 (ATCC25922); experiment: MIC broth microdilution, AECO001; format: cell-based, E. coli; conditions: for MIC: Escherichia coli
Experimental: as §1, §2, §3

[4] = test system: ASAU001 (laboratory strain of S. aureus, ATCC29213); experiment: MIC broth microdilution, ASAU001; format: cell-based; conditions: for MIC: Staphylococcus aureus, ATCC29213, read-out: MIC ASAU001
Experimental: as §1, §2, §3

[5] = test system: APAE006 (strain of P. aeruginosa in which all efflux pumps are inactivated); experiment: microbe, parasite or virus in culture; format: cell-based; conditions: Pseudomonas aeruginosa, read-out: MIC APAE006, APAE006, all efflux pumps inactivated
Experimental: as §1, §2, §3

[6] = test system: AECO063 (ATCC25922 bearing an acrAB mutation); experiment: microbe, parasite or virus in culture; format: cell-based, E. coli; conditions: for MIC: Escherichia coli, ATCC25922, read-out: MIC AECO063
Experimental: as §1, §2, §3

[7] = test system: APAE001 (ATCC27853); experiment: MIC broth microdilution, APAE001; format: cell-based, P. aeruginosa; conditions: Pseudomonas aeruginosa, ATCC27853, read-out: MIC APAE001, APAE001 (ATCC27853)
Experimental: as §1, §2, §3

[8] = ATCC25922, read-out: MIC AECO001
[9] = ATCC25922, read-out: MIC AECO001 HSA AGP

Row | Compound | MIC [1] | MIC APAE006 + PMBN [2] | MIC [3, 8] | MIC [3, 9] | MIC [4] | MIC [5] | MIC [6] | MIC [7] | MIC AABA1060 ([1]; AABA1060 clinical isolate) | MIC AECO001 ([3]; AECO001 (ATCC25922)) | MIC ASAU001 ([4]; ASAU001 (ATCC29213)) | MIC AECO063 ([6]; AECO063 (ATCC25922 acrAB mutation)) | Ratio of MICs on AECO001 [Cpd (A = —CHCH3NH2)/Cpd (A = —C(CH3)2NH2)] ([3]; MIC of paired compound with A = —CHCH3NH2 divided by MIC of compound with A = —C(CH3)2NH2, n=2 data, pairs identical except for the A moiety)
1 | CC(C)(O)[C@H](NC(=O)c1ccc(C#CC#Cc2ccc(F)cc2)cc1)C(=O)NO [Example 82-19] | < 2 µg/mL | A (MIC's of 2.0 μg/mL or less = A) | < 2 µg/mL | 2 to 16 µg/mL (≈ 5.07 to 40.6 µM) | 16 to 64 µg/mL (≈ 40.6 to 162 µM) | < 2 µg/mL | < 2 µg/mL | 2 to 16 µg/mL (≈ 5.07 to 40.6 µM) | – | – | – | – | –
2 | CCOCc1ccc(C#CC#Cc2ccc(C(=O)N[C@H](C(=O)NO)[C@@H](C)O)cc2)cc1 [Example 82-20] | 2 to 16 µg/mL (≈ 4.76 to 38.1 µM) | A (MIC's of 2.0 μg/mL or less = A) | < 2 µg/mL | 2 to 16 µg/mL (≈ 4.76 to 38.1 µM) | 16 to 64 µg/mL (≈ 38.1 to 152 µM) | < 2 µg/mL | < 2 µg/mL | 2 to 16 µg/mL (≈ 4.76 to 38.1 µM) | – | – | – | – | –
3 | CCOCc1ccc(C#CC#Cc2ccc(C(=O)N[C@H](C(=O)NO)C(C)(C)O)cc2)cc1 [Example 82-21] | < 2 µg/mL | A (MIC's of 2.0 μg/mL or less = A) | < 2 µg/mL | 2 to 16 µg/mL (≈ 4.6 to 36.8 µM) | 16 to 64 µg/mL (≈ 36.8 to 147 µM) | < 2 µg/mL | < 2 µg/mL | 2 to 16 µg/mL (≈ 4.6 to 36.8 µM) | – | – | – | – | –
4 | C[C@@H](O)[C@H](NC(=O)c1ccc(C#CC#Cc2ccc(C(F)(F)F)cc2)cc1)C(=O)NO [Example 82-22] | – | A (MIC's of 2.0 μg/mL or less = A) | – | 16 to 64 µg/mL (≈ 37.2 to 149 µM) | – | 16 to 64 µg/mL (≈ 37.2 to 149 µM) | – | 16 to 64 µg/mL (≈ 37.2 to 149 µM) | C (MIC's of greater than 16.0 μg/mL to 64.0 μg/mL = C) | A (MIC's of 2.0 μg/mL or less = A) | C (MIC's of greater than 16.0 μg/mL to 64.0 μg/mL = C) | A (MIC's of 2.0 μg/mL or less = A) | –
5 | C[C@@H](O)[C@H](NC(=O)c1ccc(C#CC#Cc2ccc(F)cc2)cc1)C(=O)NO [Example 82-23] | 16 to 64 µg/mL (≈ 42.1 to 168 µM) | A (MIC's of 2.0 μg/mL or less = A) | < 2 µg/mL | 16 to 64 µg/mL (≈ 42.1 to 168 µM) | 16 to 64 µg/mL (≈ 42.1 to 168 µM) | < 2 µg/mL | < 2 µg/mL | 16 to 64 µg/mL (≈ 42.1 to 168 µM) | – | – | – | – | –
6 | CC(C)(O)[C@H](NC(=O)c1ccc(C#CC#Cc2cccc(F)c2)cc1)C(=O)NO [Example 82-24] | < 2 µg/mL | A (MIC's of 2.0 μg/mL or less = A) | < 2 µg/mL | 2 to 16 µg/mL (≈ 5.07 to 40.6 µM) | 2 to 16 µg/mL (≈ 5.07 to 40.6 µM) | < 2 µg/mL | < 2 µg/mL | 2 to 16 µg/mL (≈ 5.07 to 40.6 µM) | – | – | – | – | –
7 | CC(C)(N)[C@H](NC(=O)c1ccc(C#CC#Cc2ccc(N)cc2)cc1)C(=O)NO [Example 82-25] | < 2 µg/mL | A (MIC's of 2.0 μg/mL or less = A) | < 2 µg/mL | < 2 µg/mL | 16 to 64 µg/mL (≈ 41 to 164 µM) | < 2 µg/mL | < 2 µg/mL | < 2 µg/mL | – | – | – | – | 1.6
8 | CC(C)(N)[C@H](NC(=O)c1ccc(C#CC#Cc2ccccc2F)cc1)C(=O)NO [Example 82-29] | < 2 µg/mL | – | < 2 µg/mL | < 2 µg/mL | 2 to 16 µg/mL (≈ 5.08 to 40.7 µM) | < 2 µg/mL | – | < 2 µg/mL | – | – | – | – | –
9 | CC(C)(O)[C@H](NC(=O)c1ccc(C#CC#Cc2cccs2)cc1)C(=O)NO [Example 88-11] | < 2 µg/mL | – | < 2 µg/mL | < 2 µg/mL | 16 to 64 µg/mL (≈ 41.8 to 167 µM) | < 2 µg/mL | < 2 µg/mL | < 2 µg/mL | – | – | – | – | –
10 | CC(C)CC#CC#Cc1ccc(C(=O)N[C@H](C(=O)NO)[C@@H](C)N)cc1 [Example 91-24] | 2 to 16 µg/mL (≈ 5.86 to 46.9 µM) | – | < 2 µg/mL | 2 to 16 µg/mL (≈ 5.86 to 46.9 µM) | 2 to 16 µg/mL (≈ 5.86 to 46.9 µM) | < 2 µg/mL | < 2 µg/mL | < 2 µg/mL | – | – | – | – | –
11 | CC(C)(N)[C@H](NC(=O)c1ccc(C#CC#CCC2CC2)cc1)C(=O)NO [Example 91-26] | < 2 µg/mL | – | < 2 µg/mL | < 2 µg/mL | 16 to 64 µg/mL (≈ 45.3 to 181 µM) | < 2 µg/mL | < 2 µg/mL | < 2 µg/mL | – | – | – | – | –
12 | C[C@@H](N)[C@H](NC(=O)c1ccc(C#CC#CCC2CC2)cc1)C(=O)NO [Example 91-27] | 2 to 16 µg/mL (≈ 5.89 to 47.1 µM) | – | < 2 µg/mL | 2 to 16 µg/mL (≈ 5.89 to 47.1 µM) | 16 to 64 µg/mL (≈ 47.1 to 189 µM) | < 2 µg/mL | < 2 µg/mL | < 2 µg/mL | – | – | – | – | –
13 | C[C@H](NCC(=O)N[C@H](C)[C@H](NC(=O)c1ccc(C#Cc2ccccc2)cc1)C(=O)NO)c1ccccc1 [Example 132-5] | 16 to 64 µg/mL (≈ 32.1 to 128 µM) | – | 16 to 64 µg/mL (≈ 32.1 to 128 µM) | 16 to 64 µg/mL (≈ 32.1 to 128 µM) | 16 to 64 µg/mL (≈ 32.1 to 128 µM) | < 2 µg/mL | – | 16 to 64 µg/mL (≈ 32.1 to 128 µM) | – | – | – | – | –
